Results taken from patent publication US20020111360A1, “Quinazoline formulations and therapeutic use thereof” (PARKER HUGHES INSTITUTE, priority 1999, published 2002).
Where a name gives a salt, the structure may show the parent alone.

Tests used:
[1] = Solubility of WHI-P131 free base and chloride salt in various liquids; type: physicochemical
Method: The solubility of WHI-P131 free base was measured in water, propylene glycol, polyethylene glycols (PEGs), ethanol, and triglycerides. The solubility of WHI-P131 is very poor in water. It was about 35 times more soluble in C8-C10 medium chain triglyceride (Captex 300) than in water. It was much more soluble in ethanol and hydrophilic cosolvents such as propylene glycol and PEGs.
Parallel solubility measurements were also carried out using WHI-P131 chloride salt. […] In contrast, the solubility of WHI-P131 chloride decreased drastically in all other liquids. […] This fact underscores the importance of knowing the solubility profile of both the free base and salt forms of an ionizable compound when making choices of its delivery vehicles.

[2] = Solubilization of WHI-P131 in water-cosolvent mixtures and micellar solutions; type: physicochemical; conditions: for Solubility: aqueous with cosolvent or surfactant or cyclodextrin
Method: To further determine the effect of cosolvents on the solubility behavior of WHI-P131, the solubility of WHI-P131 chloride salt was carried out in binary mixtures of water-cosolvents. Solvents including ethanol, propylene glycol, and PEGs are used in several injectable formulations, and were considered here as possible vehicles for WHI-P131. […] However, at PEG concentrations greater than 70%, there was a large difference between the solubility behavior of WHI-P131 in water-PEG300 and water-PEG200 mixtures. For PEG300, the solubility continued to increase linearly with increasing PEG concentration, whereas for PEG200, a large increase in slopes occurred near 100% PEG200. Since the solubility-PEG300 concentration curve is linear over the entire range of water-PEG300 mixtures, WHI-P131 solubilized in these mixtures at concentrations below its saturation point can be used as vehicles for this compound, since their dilution will not result in drug precipitation. […] Therefore, PEG300 is more appropriate for use as a cosolvent vehicle in the formulations of WHI-P131.
Micellar solutions containing PEGylated phosphatidylethanolamines were exceptionally effective in enhancing the solubilization of WHI-P131. […] Micellar solutions using purified soya lecithin (Phospholipon 90G) were feasible when an equal or higher amount of a nonionic surfactant (such as Cremophor EL for example) was also present. With PEGylated phospholipids, the presence of Cremophor EL was not necessary to form micellar solutions. In addition, an anionic PEGylated phosphatidylethanolamine seemed to be a better solubilizer for WHI-P131 than Phospholipon (mostly phosphotidylcholine). The enhanced solubilization observed with micellar solutions was apparently due to the charge interaction between the cationic WHI-P131 and anionic PEGylated phosphatidylethanolamine.
To determine the solubilization enhancement by different types of surfactants in a more quantitative manner, solubility-surfactant concentration curves were plotted. FIG. 2 depicts the amount of solubilized WHI-P131 chloride in a solution containing 20% of PEG300, and an increasing amount of PEG2000-DPPE. […] At low surfactant concentrations (below the CMC), the drug solubilization seems to remain unchanged, then increases linearily with surfactant concentration at higher PEG2000-DPPE concentration. […] In Table 8, the slopes of the linear portions of the plot for a series of nonionic surfactants and cosolvents were used to calculate the solubilization enhancement per unit surfactant or cosolvent concentration.
The solubilization enhancement, as represented by the amount of solubilized WHI-P131 (in milligram) per gram of surfactant, are shown in Table 8 to vary with the type of surfactants used. For the three PEGylated phosphatidylethanolamines, the solubilization enhancement depended on the hydrophobic chain length and polyoxyethylene number of the PEGylated phospholipids. […] Also shown in Table 8 for comparison purposes are the solubilization enhancements produced by the use of cosolvents.

[3] = Solubilization of WHI-P131 in microemulsions; type: physicochemical; conditions: microemulsion formulation vs free base in water
From the text: A series of ternary phase diagrams were constructed at room temperature, and several microemulsions within the single phase microemulsion region were examined for their capacity to solubilize WHI-P131. […] In this phase diagram, it can be seen that microemulsions containing up to 30% of Captex 300 were possible. These microemulsions were transparent and tolerated dilution very well when mixed with aqueous phases. In WHI-P131-containing microemulsions, the drug was first solubilized in the microemulsions chosen from the one phase region of the phase diagram with mild heating, followed by dilution with water or buffer solution at room temperature.
The microemulsion composition ME1 depicted in Table 9 was used in pharmacokinetic studies and biological activity assays. This microemulsion was prepared by first solubilizing WHI-P131 in composition A in the ternary phase diagram, followed by a dilution with water (1:9). […] ME2 was a microemulsion composition obtained from a separate phase diagram not shown. […] These microemulsions can readily be filtered through 0.2 μm filter, and stored at room temperature.

Compound: COc1cc2ncnc(Nc3c(Br)cc(C)cc3Br)c2cc1OC [P-241, 4-(2′,6′-Dibromo-4′-methylphenyl)-amino-6,7-dimethoxyquinazoline]
- melting point: 235 to 237 °C

Compound: COc1cc2ncnc(Nc3ccccc3Br)c2cc1OC (as salt: salt) [P-261, 4-(2′-Bromophenyl)-amino-6,7-dimethoxyquinazoline]
- melting point: 241 to 243 °C

Compound: COc1cc2ncnc(Nc3cccc4c(O)cccc34)c2cc1OC (as salt: salt) [P-293, 4-(1′-Hydroxy-naphthyl-5′)-amino-6,70-dimethoxyquina-zoline]
- melting point: 204 to 205 °C

Compound: COc1cc2ncnc(Nc3ccc(C)c(Br)c3Br)c2cc1OC [P-210, 4-(2′,3′-Dibromo-4′-methylphenyl)-amino-6,7-dimethoxyquinazoline]
- melting point: 233 to 236 °C

Compound: COc1cc2ncnc(Nc3ccc(Br)cc3Br)c2cc1OC [P-263, 4-(2′,4′-Dibromophenyl)-amino-6,7-dimethoxyquinazoline]
- melting point: 257 to 262 °C

Compound: COc1cc2ncnc(Nc3ccc4c(c3)Cc3cc(Br)ccc3-4)c2cc1OC (as salt: salt) [P-160, 4-[(7′-Bromofluorene)-2]-amino-6,7-dimethoxyquinazoline]
- melting point: 254 to 256 °C

Compound: COc1cc2ncnc(Nc3ccc(O)c(C(=O)O)c3)c2cc1OC [P-182, 4-(4′-Hydroxyl-3′-Carboxyphenyl)-amino-6,7-dimethoxyquinazoline]
- melting point: > 300 °C

Compound: COc1cc2ncnc(Nc3ccc(Br)cc3C(=O)O)c2cc1OC [P-88, 4-(4′-Bromo-2′-caboxylphenyl)-amino-6,7-dimethoxyquinazoline]
- melting point: > 300 °C

Compound: COc1cc2ncnc(Nc3cc(Br)c(C)cc3Br)c2cc1OC (as salt: salt) [P-211, 4-(2′,5′-Dibromo-4′-methylphenyl)-amino-6,7-dimethoxyquinazoline]
- melting point: 282 to 284 °C

Compound: COc1cc2ncnc(Nc3ccc(C(c4ccc(N)cc4)(C(F)(F)F)C(F)(F)F)cc3)c2cc1OC (as salt: salt) [P-352, 4-{4′-[2″-(4″′-Aminophenyl)-hexafluoropropyl]phenyl}-amino-6,7-dimethoxyquinazoline]
- melting point: 280 to 282 °C

Compound: COc1cc2ncnc(Nc3c(O)ccc4ccccc34)c2cc1OC (as salt: salt) [P-275, 4-(2′-Naphthol-1)-amino-6,7-dimethoxyquinazoline]
- melting point: 218 to 220 °C

Compound: COc1cc2ncnc(Nc3ccc(I)cc3)c2cc1OC (as salt: salt) [P-300, 4-(4′-Iodophenyl)-amino-6,7-dimethoxyquinazoline]
- melting point: 240 to 242 °C

Compound: COc1cc2ncnc(Nc3c(Br)cc(Br)cc3Br)c2cc1OC [P-222, 4-(2′,4′,6′-Tribromophenyl)amino-6,7-dimethoxyquinazoline]
- melting point: 250 to 255 °C

Compound: COc1cc2ncnc(Nc3cccc(C(C)O)c3)c2cc1OC (stereo not shown) [P-276, 4-[3′-(1″-Hydroxyethyl)]-amino-6,7-dimethoxyquinazoline]
- melting point: 215 to 218 °C

Compound: COc1cc2ncnc(Nc3ccccc3OC(F)(F)F)c2cc1OC (as salt: salt) [P-365, 4-(2′-Trifluoromethoxylphenyl)-amino-6,7-dimethoxyquinazoline]
- melting point: 235 to 237 °C

Compound: COc1cc2ncnc(Nc3ccc(Br)cc3CO)c2cc1OC (as salt: salt) [P-190, 4-(4′-Bromo-6′-hydroxymethylphenyl)-amino-6,7-dimethoxyquinazoline]
- melting point: 222 to 223 °C

Compound: COc1cc2ncnc(Nc3ccc(O)cc3)c2cc1OC [WHI-P131 Free base, 4-(4′-Hydroxylphenyl)-amino-6,7-dimethoxyquinazoline]
- Solubility ([1]; Captex 300): 0.88 ± 0.08 mg/mL
- Solubility ([1]; Ethanol): 18.6 ± 0.5 mg/mL
- Solubility ([1]; PEG200): >100 mg/mL
- Solubility ([1]; PEG300): >185 mg/mL
- Solubility ([1]; Propylene glycol): 19.5 ± 0.7 mg/mL
- Solubility ([1]; Water): 0.025 mg/mL
- Solubility ([1]; ethanol): 1.86%
- Solubility ([1]; polyethylene glycols): greater than 10%
- Solubility ([1]; propylene glycol): 1.95%

Compound: COc1cc2ncnc(Nc3ccc(CCO)cc3)c2cc1OC [P-265, 4-[4′-(2″-Hydroxylethylphenyl)]-amino-6,7-dimethoxyqui-nazoline]
- melting point: 235 to 240 °C

Compound: COc1cc2ncnc(Nc3ccc(C(F)(F)F)cc3)c2cc1OC [P-223, 4-(4′-Trifluoromethylphenyl)-amino-6,7-dimethoxyquinazoline]
- melting point: 243 to 245 °C

Compound: COc1cc2ncnc(Nc3ccccc3I)c2cc1OC (as salt: salt) [P-270, 4-(2′-Iodophenyl)-amino-6,7-dimethoxyquinazoline]
- melting point: 225 to 230 °C

Compound: COc1cc2ncnc(Nc3ccc(O)cc3)c2cc1OC [WHI-P131, 4-(4′-Hydroxylphenyl)-amino-6,7-dimethoxyquinazoline]
- Solubility in C8-C10 medium chain triglyceride (Captex 300) relative to water ([1]; Captex 300 vs water): about 35 times
- Solubility ([1]; Water): very poor
- Solubility ([2]; 20% PEG300 plus 3% PEG2000-DPPE micellar solution, chloride salt, 20% PEG300 plus 3% PEG2000-DPPE, read-out: Drug solubilization in cosolvent/micellar vehicle): 4700 µg/mL
- Solubilized WHI-P131 (mg) per gram of surfactant or solvent ([2]; PEG200, Cosolvent): 5.3 mg per gram
- Solubilized WHI-P131 (mg) per gram of surfactant or solvent ([2]; PEG300, Cosolvent): 5.8 mg per gram
- Solubilized WHI-P131 (mg) per gram of surfactant or solvent ([2]; PEG400, Cosolvent): 6.2 mg per gram
- Solubilized WHI-P131 (mg) per gram of surfactant or solvent ([2]; PEG2000-PE (14:0), Micellar solution): 76.6 mg per gram
- Solubilized WHI-P131 (mg) per gram of surfactant or solvent ([2]; PEG2000-PE (16:0), Micellar solution): 92.0 mg per gram
- Solubilized WHI-P131 (mg) per gram of surfactant or solvent ([2]; PEG5000-PE (18:0), Micellar solution): 37.5 mg per gram
- Solubilized WHI-P131 (mg) per gram of surfactant or solvent ([2]; Pluronic F-68, Micellar solution): 6.1 mg per gram
- Solubility in 20% PEG300 ([2]; chloride salt, 20% PEG300, no surfactant): 2200 µg/mL
- Total solubilization enhancement ([2]; cosolvent/micellar solution vs free base in water): 190 fold
- Total solubilization enhancement [3]: 110 fold

Compound: COc1cc2ncnc(Nc3ccc(O)cc3)c2cc1OC [WHI-P131 Chloride salt, 4-(4′-Hydroxylphenyl)-amino-6,7-dimethoxyquinazoline]
- Solubility ([1]; Captex 300): 0.012 ± 0.002 mg/mL
- Solubility ([1]; Ethanol): 0.631 ± 0.007 mg/mL
- Solubility ([1]; PEG200): 25.12 ± 0.72 mg/mL
- Solubility ([1]; PEG300): 10.10 ± 3.60 mg/mL
- Solubility ([1]; Propylene glycol): 1.61 ± 0.09 mg/mL
- Solubility ([1]; Water): 1.24 ± 0.09 mg/mL
- Solubility ([1]; Water, listed as WHI-P131 salt): 1.2 mg/mL
- Solubility ([2]; 20% PEG300 in water, chloride salt, 20% PEG300, no surfactant, read-out: Solubility in 20% PEG300): 2380 µg/mL
